# pIC50: −log10 of the molar value.
# Target: T1, PD-1/PD-L1 protein/protein interaction (Homo sapiens, UniProt Q9NZQ7)
# T1 construct: Recombinant human PD-L1 protein (19-238) with a His-tag at the C-terminus; purchased AcroBiosystems PD1-H5229 (PD-L1); PD1-H5257 (PD-1)
# Assay: PD-1/PD-L1 homogenous time-resolved fluorescence (HTRF) binding assay
# Conditions: not given
# Description: Resolved Fluorescence (HTRF) Binding Assay
# The assays were conducted in a standard black 384-well polystyrene plate with a final volume of 20 μL. Inhibitors were first serially diluted in DMSO and then added to the plate wells before the addition of other reaction components. The final concentration of DMSO in the assay was 1%. The assays were carried out at 25° C. in the PBS buffer (pH 7.4) with 0.05% Tween-20 and 0.1% BSA. […] Plates were centrifuged and proteins were preincubated with inhibitors for 40 min. The incubation was followed by the addition of 10 μL of HTRF detection buffer supplemented with Europium cryptate-labeled anti-human IgG (PerkinElmer-AD0212) specific for Fc and anti-His antibody conjugated to SureLight®-Allophycocyanin (APC, PerkinElmer-AD0059H). After centrifugation, the plate was incubated at 25° C. for 60 min. […] Final concentrations in the assay were […], 10 nM PD-L1, nM europium anti-human IgG and 20 nM anti-His-Allophycocyanin. IC50 determination was performed by fitting the curve of percent control activity versus the log of the inhibitor concentration using the GraphPad Prism 5.0 software.
# T1 sequence (Q9NZQ7 19-238): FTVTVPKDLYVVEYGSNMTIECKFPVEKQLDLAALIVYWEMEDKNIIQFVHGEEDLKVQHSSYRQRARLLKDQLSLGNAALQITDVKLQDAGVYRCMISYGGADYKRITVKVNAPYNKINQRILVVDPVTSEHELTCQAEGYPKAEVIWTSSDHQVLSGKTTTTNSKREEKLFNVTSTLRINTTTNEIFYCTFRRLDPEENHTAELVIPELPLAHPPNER
row,SMILES,pIC50
1,"COCCN(C)CCCOc1cccc(-c2cccc(-c3nc4cc(CN5CCCCC5C(=O)O)c(OC)cc4o3)c2C)c1C (centres unmarked) [Compound 31, 1-((6-methoxy-2-(3′-(3-((2-methoxyethyl)(methyl)amino)propoxy)-2,2′-dimethyl-[1,1′-biphenyl]-3-yl)benzo[d]oxazol-5-yl)methyl)piperidine-2-carboxylic acid]",> 7.60
2,"COc1cc2oc(-c3cccc(-c4cccc(OCCCN(C)CCCCO)c4C)c3C)nc2cc1CN1CCCCC1C(=O)O (centres unmarked) [Compound 29, 1-((2-(3′-(3-((4-hydroxybutyl)(methyl)amino)propoxy)-2,2′-dimethyl-[1,1′-biphenyl]-3-yl)-6-methoxybenzo[d]oxazol-5-yl)methyl)piperidine-2-carboxylic acid]",> 7.60
3,"COc1cc2oc(-c3cccc(-c4cccc5c4CCN5C(=O)CCN4CCOCC4)c3C)nc2cc1CN1CCOCC1C(=O)O (centres unmarked) [Compound 38, 4-((6-methoxy-2-(2-methyl-3-(1-(3-morpholinopropanoyl)indolin-4-yl)phenyl)benzo[d]oxazol-5-yl)methyl)morpholine-3-carboxylic acid]",> 7.60
4,"COc1cc2oc(-c3cccc(-c4cccc(NC(=O)CCN5CCOCC5)c4)c3C)nc2cc1CN1CCOCC1C(=O)O (centres unmarked) [Compound 17, 4-((6-methoxy-2-(2-methyl-3′-(3-morpholinopropanamido)-[1,1′-biphenyl]-3-yl)benzo[d]oxazol-5-yl)methyl)morpholine-3-carboxylic acid]",> 7.60
5,"COc1cc2oc(-c3cccc(-c4cccc(NC(=O)CCN5CCOCC5)c4C)c3C)nc2cc1CN1CCCCC1C(=O)O (centres unmarked) [Compound 8, 1-((2-(2,2′-dimethyl-3′-(3-morpholinopropanamido)-[1,1′-biphenyl]-3-yl)-6-methoxybenzo[d]oxazol-5-yl)methyl)piperidine-2-carboxylic acid]",> 7.60
6,"Cc1c(-c2cccc(OCCCN3CCOCC3)c2)cccc1-c1nc2cc(CN3CCCCC3C(=O)O)c(OCc3ccccn3)cc2o1 (centres unmarked) [Compound 22, 1-((2-(2-methyl-3′-(3-morpholinopropoxy)-[1,1′-biphenyl]-3-yl)-6-(pyridin-2-ylmethoxy)benzo[d]oxazol-5-yl)methyl)piperidine-2-carboxylic acid]",6.82 to 7.60
7,"COc1cc2oc(-c3cccc(-c4cccc(NC(=O)NCCNCCO)c4)c3C)nc2cc1CN1CCCCC1C(=O)O (centres unmarked) [Compound 5, 1-((2-(3′-(3-(2-((2-hydroxyethyl)amino)ethyl)ureido)-2-methyl-[1,1′-biphenyl]-3-yl)-6-methoxybenzo[d]oxazol-5-yl)methyl)piperidine-2-carboxylic acid]",6.82 to 7.60
8,"COc1cc2c(cc1CN1CCC(F)(F)CC1C(=O)O)nc(-c1cccc(-c3cccc(OCCCN4CCOCC4)c3)c1C)n2C (centres unmarked) [Compound 15, 4,4-difluoro-1-((6-methoxy-1-methyl-2-(2-methyl-3′-(3-morpholinopropoxy)-[1,1′-biphenyl]-3-yl)-1H-benzo[d]imidazol-5-yl)methyl)piperidine-2-carboxylic acid]",6.82 to 7.60
9,"COc1cc2oc(-c3cccc(-c4cccc(OCCCN5CCOCC5)c4C#N)c3C)nc2cc1CN1CCOCC1C(=O)O (centres unmarked) [Compound 18, 4-((2-(2′-cyano-2-methyl-3′-(3-morpholinopropoxy)-[1,1′-biphenyl]-3-yl)-6-methoxybenzo[d]oxazol-5-yl)methyl)morpholine-3-carboxylic acid]",> 7.60

# Same assay, conditions: HTRF, recombinant human PD-1 (Fc tag) / PD-L1 (His-tag), 25° C., PBS pH 7.4; class symbols; read-out: IC50
row,SMILES,pIC50
1,"COc1cc2oc(-c3cccc(-c4cccc5c4CCN5C(=O)CN4CCOCC4)c3C)nc2cc1CN1CCCCC1C(=O)O (centres unmarked) [Compound 40, 1-((6-methoxy-2-(2-methyl-3-(1-(2-morpholinoacetyl)indolin-4-yl)phenyl)benzo[d]oxazol-5-yl)methyl)piperidine-2-carboxylic acid]",< 6.82
2,"COc1cc2oc(-c3cccc(-c4cccc(OCCCN5CCOCC5)c4)c3C)nc2cc1CN(C)CC(=O)O [Compound 19, N-((6-methoxy-2-(2-methyl-3′-(3-morpholinopropoxy)-[1,1′-biphenyl]-3-yl)benzo[d]oxazol-5-yl)methyl)-N-methylglycine]",6.82 to 7.60
3,"COc1cc2oc(-c3cccc(-c4cccc(OCCCN5CCOCC5)c4)c3C)nc2cc1CN(C)C [Compound 2, 1-(6-methoxy-2-(2-methyl-3′-(3-morpholinopropoxy)-[1,1′-biphenyl]-3-yl)benzo[d]oxazol-5-yl)-N,N-dimethylmethanamine]",6.82 to 7.60
4,"Cc1c(OCCCN2CCOCC2)cccc1-c1cccc(-c2nc3cc(CNCC(=O)O)c(N(C)C)cc3s2)c1C [Compound 36, ((2-(2,2′-dimethyl-3′-(3-morpholinopropoxy)-[1,1′-biphenyl]-3-yl)-6-(dimethylamino)benzo[d]thiazol-5-yl)methyl)glycine]",6.82 to 7.60
5,"COc1cc2oc(-c3cccc(-c4ccc(Cl)c(OCCCN5CCOCC5)c4)c3C)nc2cc1CN1CCCCC1C(=O)O (centres unmarked) [Compound 11, 1-((2-(4′-chloro-2-methyl-3′-(3-morpholinopropoxy)-[1,1′-biphenyl]-3-yl)-6-methoxybenzo[d]oxazol-5-yl)methyl)piperidine-2-carboxylic acid]",6.82 to 7.60
